Data taken from patent publication US6362212B1, “Oxime derivative and bactericide containing the same as active ingredient” (Shionogi & Company, Ltd., priority 1994, dated 2002).

Columns and labels:
Format in all cases: in vivo
[1] = system: Pyricularia oryzae; conditions: foliage spray on rice seedlings (cv. […]), number of lesions six days after the inoculation
[2] = system: Sphaerotheca fuliginea; assay: Controlling effect on Sphaerotheca fuliginea by foliage application (pot experiment); conditions: foliage spray on cucumber (cv. TSUKUBASHIROIBO) first leaves, infected area after 10 days in greenhouse at 20° C.
How it was run: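 First leaves of cucumber seedlings, 2-3 weeks old, were sprayed with compound (DMF solution diluted in water with spreader). They were inoculated 24 h later with a Sphaerotheca fuliginea conidia spray and kept 10 days at 20° C in a greenhouse. Percent control was calculated from infected leaf area.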

[3] = system: Erysiphe graminis f. sp. tritici; assay: Controlling effect on Erysiphe graminis f. sp. tritici by foliage application (pot experiment); conditions: foliage spray on wheat (cv. NORIN No. 61) seedlings, infected area after 10 days in greenhouse at 20° C.
How it was run: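 Wheat seedlings (cv. NORIN No. 61, 2-3 weeks old) sprayed with compound in DMF diluted in water with spreader, then inoculated with conidia 24 hours later. Kept in greenhouse at 20 °C for 10 days; percent control calculated from infected leaf area.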

[4] = system: Puccinia coronata; assay: Controlling effect on Puccinia coronata by foliage application (pot experiment); conditions: foliage spray on oat (cv. PC-38) seedlings, infected area after 1 day moist chamber and 8 days greenhouse at 20° C.
Method: The following Test Examples illustrate the effects of the fungicide of the present invention. (I. Controlling effects on various plant diseases by foliage application (pot experiment)) A test compound was dissolved in a small amount of N,N-dimethylformamide, and the solution was diluted to a given concentration with distilled water containing a spreader. Thus, a liquid sample to be tested was prepared. The liquid sample was sprayed to test plants, and 24 hours thereafter, pathogens were inoculated by the method described below. […] The seeds of oat (cv.: PC-38) were sown in plastic cups (each 9 cm in diameter), followed by cultivation for 2 to 3 weeks. The test compound in the form of a solution or suspension was sprayed to the seedlings. Spores of Puccinia coronata cultured on oat leaves were collected, diluted about 10-fold with talc, and sprayed to the test plants to inoculate the plants with the pathogen. After the inoculation, the plants were kept in a moist chamber at 20° C. for 1 day and then in a greenhouse at 20° C. for 8 days. The infected area on the leaf was observed, and the percent control was calculated.

Compound | Controlling effect on PYricularia orYzae by foliage application at 500 ppm (percent control) [1] [percent control] | Controlling effect on Sphaerotheca fuliginea by foliage application at 500 ppm (percent control) [2] [percent control] | Controlling effect on ErYsiphe graminis f. sp. tritici by foliage application at 500 ppm (percent control) [3] [percent control] | Controllng effect on Puccinia coronata by foliage application at 500 ppm (percent control) [4] [percent control] | pest or weed control at 500 ppm ([2]; Podosphaera fuliginea, in Cucumis sativus, foliar, 240 h, read-out: Controlling effect on Sphaerotheca fuliginea by foliage application at 500 ppm (percent control)) [%] | pest or weed control at 500 ppm ([3]; Blumeria graminis, foliar, 240 h, read-out: Controlling effect on ErYsiphe graminis f. sp. tritici by foliage application at 500 ppm (percent control)) [%]
CON=C(C1=NOCC1)c1ccccc1COc1cc(C)ccc1C (mixture of isomers) [compound 1236] | 97 | 100 | 90 | 97 | – | –
CON=C(c1cc(C)on1)c1ccccc1COc1cc(C)ccc1C (mixture of isomers) [Compound No. 436] | 70 | 100 | 90 | 90 | – | –
CON=C(c1ccccc1COc1ccc(Cl)cc1)n1cncn1 [compound 267] | 90 | 100 | 97 | 90 | – | –
CON=C(c1ccno1)c1ccccc1COc1cc(C)ccc1C (single isomer, unassigned) [536A] | – | 100 | 97 | 90 | – | –
CCON=C(c1ccccc1COc1ccccc1)n1cncn1 [compound 275] | – | 100 | 90 | 90 | – | –
CON=C(c1ccccc1COc1cc(C)ccc1C)c1nccn1C (single isomer, unassigned) [136A] | 90 | 100 | 90 | 100 | – | –
CON=C(c1ccccc1COc1cccnc1Cl)n1ccnc1 [compound 57] | – | 90 | 70 | 90 | – | –
CON=C(c1ccon1)c1ccccc1COc1ccccc1C (mixture of isomers) [compound 312] | 70 | 100 | 100 | 97 | – | –
CON=C(c1cc(C)no1)c1ccccc1COc1cc(C)ccc1C (single isomer, unassigned) [636A, 2-(2,5-dimethylphenoxymethyl)phenyl 3-methylisoxazol-5-yl ketone O-methyloxime] | 97 | – | – | 100 | 97 | 100
CON=C(c1cc(C)no1)c1ccccc1COc1cc(C)ccc1C (single isomer, unassigned) [636B, 2-(2,5-dimethylphenoxymethyl)phenyl 3-methylisoxazol-5-yl ketone O-methyloxime] | 70 | 100 | 100 | 90 | – | –
CON=C(C1=NCCN1C)c1ccccc1COc1cccc(C)c1 [compound 1113] | – | – | – | 70 | – | –
C=CCON=C(c1ccccc1COc1ccccc1)n1cncn1 [compound 278] | – | 97 | 90 | 90 | – | –
CON=C(C1=NCCO1)c1ccccc1COc1cc(C)ccc1C [compound 1328] | 90 | 100 | 90 | 70 | – | –
CON=C(C1=NCCN1)c1ccccc1COc1cc(C)ccc1C [compound 1478] | – | 70 | 90 | 70 | – | –
CON=C(c1ccccc1Oc1ccccc1)c1nccn1C [compound 161] | – | 100 | 70 | 97 | – | –
C=CCON=C(c1ccccc1COc1ccccc1)n1cccn1 [compound 298] | – | – | – | 70 | – | –
CON=C(C1=NCCN1C)c1ccccc1COc1cc(C)ccc1C [Compound No. 1136] | – | 100 | 90 | 90 | – | –
CON=C(c1noc(C)n1)c1ccccc1COc1ccc(C)cc1 [compound 914] | – | – | – | 97 | – | –
CON=C(c1nnn(C)n1)c1ccccc1COc1ccccc1 [compound 2001] | – | 70 | – | 70 | – | –
CON=C(c1ccccc1COc1ccccc1)c1nnnn1C [compound 1001] | – | – | – | 70 | – | –
